Test results from patent US9341616B2, “Sweet taste receptor chimeric proteins and use thereof” (AJINOMOTO CO., INC., priority 2014, dated 2016).
Like-named read-outs stand apart in the source and are kept apart here. Residues, ends and D or L forms follow the SMILES beside them.

Biological target: hT1R2/T1R3mosaicA (UniProt Q8TE23+Q925D8, A12W/A31M/A558R/A588V/A645S/A698V/A702T/A793V/A807V/C582S/C678S/E16H/E725V/F14L/F29L/F541I/F612A/F622V/F695L/H728R/I36V/I60P/I617V/I706V/I740A/I803L/K30R/K555R/K565R/K818R/K827G/L17P/L560F/L684P/L735F/L823M/L825Q/M19T/M644L/M744T/N52R/N547G/N58S/N63T/N675D/P545F/P561R/P564S/P61V/Q32K/Q53S/Q550E/Q56R/Q611L/Q757R/Q795R/Q831P/R632Q/S22P/S45E/S576L/S595F/S610P/S635P/S637R/S679G/S717H/T46A/T50G/T542A/T663I/T694M/T813A/V573A/V584A/V718M/V723A/V729T/V738A/V805L/V812A/V821L/W599R/W676R/W824R/Y680C/Y794L)
Conditions: HEK293E cells
[1] = Table 5, genes hT2/T3mA (hT1R2, T1R3mA)
[2] = Table 6, genes hT2/T1R3mA (hT1R2, T1R3mA)

Sequence of hT1R2/T1R3mosaicA (Q8TE23 20-839, stated change not applied): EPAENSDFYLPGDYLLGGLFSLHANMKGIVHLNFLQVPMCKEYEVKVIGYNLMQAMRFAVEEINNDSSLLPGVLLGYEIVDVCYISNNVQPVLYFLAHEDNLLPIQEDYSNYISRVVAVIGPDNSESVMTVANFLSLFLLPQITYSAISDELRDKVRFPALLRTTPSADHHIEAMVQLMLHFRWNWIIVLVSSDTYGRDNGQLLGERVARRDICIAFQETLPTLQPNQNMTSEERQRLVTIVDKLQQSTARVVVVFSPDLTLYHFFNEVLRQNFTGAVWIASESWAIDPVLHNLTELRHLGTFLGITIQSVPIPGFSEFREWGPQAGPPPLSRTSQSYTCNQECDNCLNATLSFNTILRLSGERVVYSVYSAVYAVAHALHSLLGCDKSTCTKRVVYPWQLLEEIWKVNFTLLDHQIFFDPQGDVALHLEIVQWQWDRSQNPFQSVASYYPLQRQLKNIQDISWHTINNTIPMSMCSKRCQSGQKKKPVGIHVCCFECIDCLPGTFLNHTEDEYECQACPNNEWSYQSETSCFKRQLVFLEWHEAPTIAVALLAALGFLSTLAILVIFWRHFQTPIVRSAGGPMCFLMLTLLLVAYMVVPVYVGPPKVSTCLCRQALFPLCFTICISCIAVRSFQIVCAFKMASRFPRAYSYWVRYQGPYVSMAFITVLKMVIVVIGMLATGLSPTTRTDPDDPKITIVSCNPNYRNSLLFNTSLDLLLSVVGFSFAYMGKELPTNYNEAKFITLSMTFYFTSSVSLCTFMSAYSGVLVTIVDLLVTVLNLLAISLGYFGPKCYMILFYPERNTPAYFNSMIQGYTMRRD
Sequence of hT1R2/T1R3mosaicA (Q925D8 with tags, fused parts or gaps with the stated changes limits assumed): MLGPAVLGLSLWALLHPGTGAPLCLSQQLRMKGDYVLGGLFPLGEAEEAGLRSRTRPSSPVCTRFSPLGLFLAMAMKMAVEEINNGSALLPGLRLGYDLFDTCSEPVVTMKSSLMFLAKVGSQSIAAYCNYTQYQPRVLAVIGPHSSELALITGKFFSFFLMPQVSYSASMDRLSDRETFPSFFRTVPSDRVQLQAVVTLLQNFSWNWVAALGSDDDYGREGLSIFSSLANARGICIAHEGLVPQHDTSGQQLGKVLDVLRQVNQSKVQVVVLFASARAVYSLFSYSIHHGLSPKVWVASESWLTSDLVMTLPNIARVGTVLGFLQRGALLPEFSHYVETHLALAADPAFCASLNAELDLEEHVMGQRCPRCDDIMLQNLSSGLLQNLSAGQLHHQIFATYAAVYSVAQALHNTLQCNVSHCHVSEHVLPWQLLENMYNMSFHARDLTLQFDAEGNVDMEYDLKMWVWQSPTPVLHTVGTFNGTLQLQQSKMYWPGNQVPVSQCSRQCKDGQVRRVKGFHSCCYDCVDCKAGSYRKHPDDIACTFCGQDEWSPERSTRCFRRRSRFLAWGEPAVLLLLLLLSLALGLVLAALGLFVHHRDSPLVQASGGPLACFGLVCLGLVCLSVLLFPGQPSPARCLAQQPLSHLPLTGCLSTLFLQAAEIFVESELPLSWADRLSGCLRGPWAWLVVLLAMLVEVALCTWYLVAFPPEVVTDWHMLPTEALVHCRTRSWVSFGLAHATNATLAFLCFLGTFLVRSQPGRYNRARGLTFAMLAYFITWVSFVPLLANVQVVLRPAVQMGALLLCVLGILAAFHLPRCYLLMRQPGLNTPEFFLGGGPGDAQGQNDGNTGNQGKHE

Compound | S/N [1] | S/N [2]
COC(=O)[C@H](Cc1ccccc1)NC(=O)[C@H](CC(=O)O)NCCC(C)(C)C [Neotame, neotame] | 5.7 | 6.5
COC(=O)[C@H](Cc1ccccc1)NC(=O)[C@H](CC(=O)O)NCCCc1ccc(OC)c(O)c1 [Advantame, advantame] | 7.6 | 7.5
OC[C@H]1O[C@@](CO)(O[C@H]2O[C@H](CO)[C@@H](O)[C@H](O)[C@H]2O)[C@@H](O)[C@@H]1O [Sucrose, sucrose] | 2.6 | 2.3
COC(=O)[C@H](Cc1ccccc1)NC(=O)[C@@H](N)CC(=O)O [Aspartame, aspartame] (HELM PEPTIDE1{D.F.[CO[*:1]]}$$$$V2.0) | 4.4 | 3.5
O=C1NS(=O)(=O)c2ccccc21.[Na] [Saccharin Na, sodium saccharin] | 4.3 | 4.2
C[C@H](NC(=Nc1ccc(C#N)cc1)NCC(=O)O)c1ccccc1 [SC-45647, [3-[(S)-1-phenylethyl]-2-(4-cyanophenyl)guanidino]acetic acid] | 5.9 | 6.8
OC[C@H]1O[C@H](O[C@]2(CCl)O[C@H](CCl)[C@@H](O)[C@@H]2O)[C@H](O)[C@@H](O)[C@H]1Cl [Sucralose, sucralose] | 6.0 | 5.9
COc1ccc(CCC(=O)c2c(O)cc(O[C@@H]3O[C@H](CO)[C@@H](O)[C@H](O)[C@H]3O[C@@H]3O[C@@H](C)[C@H](O)[C@@H](O)[C@H]3O)cc2O)cc1O [NHDC, neohesperidin dihydrochalcone] | 2.9 | 3.8
CC1=CC(=O)NS(=O)(=O)O1 [Acesulfame K, acesulfame potassium] | 3.7 | 3.7
